What was measured:
[1] = system: hepatitis virus B (HBV) infection; experiment: iCell hepatocytes assay, delayed assay (compounds added three days after HBV infection); type: cell-based; details: for EC50: Hepatitis B virus, Hepatocyte, HBs ELISA
Protocol: (§1) The principle of the iCell hepatocyte 2.0 96 well assay is to evaluate the inhibitory effect of a test compound on hepatitis virus B (HBV) infection. In this assays the HBV core antigen (HBcAg) and/or extracellular antigen (HBeAg) and/or surface antigen (HBsAg) are used as a marker for HBV infection. Nuclei count may be used as an indication for compound toxicity.
(§2) In the standard assay set-up HBV infection and compound addition are performed on the same day, in the delayed assay the compounds are added three days after HBV infection. iCell hepatocytes 2.0 are human hepatocytes derived from induced pluripotent stem cells (iPSc) purchased from Cellular Dynamics international (CDI, R1027).
(§3) At day 0, iCell hepatocytes 2.0 (CDI, R1027) are thawed and seeded in collagen I coated 96well plates at 112 000c/well (100µL) in plating medium (RPMI supplemented with B27 supplement, 20 ng/mL recombinant human oncostatin M (OSM), 25µg/mL gentamicin, 0.1µM Dexamethasone and iCell medium supplement provided by CDI). Plates are incubated at 37°C, 5% CO2 and daily refreshed with plating medium for the following four days.
(§4) On day 5 and 6, plates are refreshed with 100µL maintenance medium (RPMI supplemented with B27 supplement, 25µg/mL gentamicin, 0.1µM Dexamethasone, and iCell medium supplement provided by CDI) and incubated at 37°C, 5% CO2 until the following day.
On day 7 (day of infection), the maintenance medium is removed from the assay plates and cells are infected with 50 µL of HBV mix (HBV virus, 4% PEG, 0% or 2% DMSO in maintenance medium). The assay plates were incubated overnight at 37°C, 5% CO2.
At day 1 post infection (day8), 50µL of HBV mix is removed from the assay plates and refreshed with 100 µL of maintenance medium. The assay plates are incubated at 37°C, 5% CO2 for three days.
At day 4 post infection (day 11) and day 7 post infection (day14), the supernatant is removed and 100 µL of compound series diluted 1/500 in maintenance medium is added to the assay plates (8 point serial dilution using 1/3 dilution steps in 100% DMSO or 8 point serial dilution using ¼ dilution steps, normalized for 0.2% DMSO. The assay plates were incubated at 37°C, 5% CO2 for three days.
At day 10 post infection (day 17), 100µL of supernatant is harvested and frozen to -20°C. The cells are fixed with 50 µL of 3.7% formaldehyde and incubated for 30 min at room temperature. After fixation, cells are washed four times with phosphate buffer saline (PBS) with the plate washer (Select 405, microplate washer, Biotek) and subjected to HBc staining. harvested supernatant is used for HBe and/or HBs ELISA.
(§5) The assay plates are blocked with blocking buffer (2% FBS, 3% BSA, 0.2% TritonX100 in PBS) for 1 h at room temperature.
(§6) After blocking, the assay plates are tapped manually and incubated with 50 µL diluted primary antibody (1/700 Rabbit-anti-HBc Ag, Dako, B0586 or 1/350 Rabbit-anti-HBc Ag, Invitrogen, PA516368) in blocking buffer and incubated for 90 min at room temperature.
(§7) After 4 washes of PBST (1XPBS + 0.05% Tween) with the plate washer, the assay plates are incubated with 100 µL of secondary antibody (Donkey-anti-rabbit Alexa 488, Lifetechnologies, A21206) 1/500 diluted in blocking buffer and incubated for 60 min at room temperature in the dark, then washed 4 times with PBST on the plate washer and incubated with 100µL of DAPI (Sigma D9542, stock 5mg/mL) 1/10000 diluted in PBS for 15-30 min at room temperature in the dark.
Finally, the assay plates are read out on a InCell Analyzer 2200 (GE Healthcare). […]
After blocking, 30 µL of sample and HBe Ag standard (recombinant hepatitis B virus E antigen protein, 4mg/mL, Abcam, ab91273) are added to the plate. The HBe Ag standard is 1/3 diluted in blocking buffer starting from 1.25µg/mL. A vehicle control is also included. The plate is incubated for 30 min at room temperature.
After sample incubation, the plates are washed 4 times with PBST on a platewasher followed by 2 washed of PBS. […]

[2] = system: hepatitis virus B (HBV) infection; experiment: iCell hepatocytes assay, standard assay (HBc staining, HBe ELISA, HBs ELISA); type: cell-based; details: for EC50: Hepatitis B virus, Hepatocyte
Protocol: as §1, §2, §3, §4
On day 7 (day of infection) the supernatant is removed from the assay plates and 25 µL of 1/250 diluted compound in maintenance medium and 25 µL of HBV mix (HBV virus, 8% PEG, 0% or 4% DMSO in maintenance medium) are added to the assay plates. Compounds series are either prepared manually as a 6 point serial dilution using 1/5 dilution steps in 100% DMSO or as an 8 point serial dilution using 1/3 dilution steps in 100% DMSO or as an 8 point serial dilution using ¼ dilution steps, normalized for 0.2% DMSO. The assay plates were incubated overnight at 37°C, 5% CO2.
On day 1 post infection (day 8) 50 µL of HBV/cpd mix is removed from the assay plates and refreshed with 100 µL of compound series diluted 1/500 in maintenance medium. The assay plates are incubated at 37°C, 5% CO2 and refreshed with compound series diluted 1/500 in maintenance medium every other day (at day 3 and day 5 post infection) or after three days of incubation (at day 4 post infection).
At day 7 post infection (day 14), 100µL of supernatant is harvested and frozen at -20°C. The cells were fixed with 50 µL of 3.7% formaldehyde and incubated for 30 min at room temperature. After fixation, cells are washed four times with phosphate buffer saline (PBS) with the plate washer (Select 405, microplate washer, Biotek) and subjected to HBc staining. The harvested supernatant is used for HBe and/or HBs ELISA.
as §5, §6, §7
Finally, the assay plates are read out on a InCell Analyzer 2200 (GE Healthcare).
A white lumitrac 600 384 well plate iss coated with 40µL of capture antibody (monoclonal Mouse-anti-HBe Ag, Fitzgerald, 10-H10) diluted 1/2000 in coating buffer (0.1M sodium carbonate pH 9.5) and incubated overnight at 4°C. […]

Structure (SMILES)	Delayed assay HBs ELISA % inhibition [1]	EC50 [1]	Standard assay HBs ELISA % inhibition [2]	EC50 [2]
COCCCOc1cc2c(cc1F)-c1c(cc(C(=O)O)c(=O)n1C1CC1)C(C(C)C)O2 (stereo not drawn) [Compound 1, 1-cyclopropyl-9-fluoro-5-isopropyl-8-(3-methoxypropoxy)-2-oxo-5H-chromeno[4,3-b]pyridine-3-carboxylic acid]	++ (50-75%)	0.001 to 20 nM	++ (50-75%)	0.001 to 20 nM
COCCCOc1cc2c(cc1Cl)-c1c(cc(C(=O)O)c(=O)n1C1CC1)CO2 [Compound 6, 9-chloro-1-cyclopropyl-8-(3-methoxypropoxy) -2-oxo-5H-chromeno[4,3-b]pyridine-3-carboxylic acid]	++ (50-75%)	22 to 50 nM	+++ (75-100%)	0.001 to 20 nM
CCC1Oc2cc(OCCCOC)c(F)cc2-c2c1cc(C(=O)O)c(=O)n2C1CC1 (stereo not drawn) [Compound 16, 1-cyclopropyl-5-ethyl-9-fluoro-8-(3-methoxypropoxy) -2-oxo-5H-chromeno[4,3-b]pyridine-3-carboxylic acid]	++ (50-75%)	22 to 50 nM	++ (50-75%)	22 to 50 nM
COCCCOc1cc2c(cc1Cl)-c1c(cc(C(=O)O)c(=O)n1C1CC1)C(C(C)(C)COC)O2 (stereo not drawn) [Compound 19, 9-chloro-1-cyclopropyl-5-(2-methoxy-1,1-dimethyl-ethyl)-8-(3-methoxypropoxy) -2-oxo-5H-chromeno[4,3-b]pyridine-3-carboxylic acid]	++ (50-75%)	22 to 50 nM	++ (50-75%)	22 to 50 nM
COCCCOc1cc2c(cc1F)-c1c(cc(C(=O)O)c(=O)n1C1CC1)[C@H](C(C)C)O2 [Compound 44, (5S)-1-cyclopropyl-9-fluoro-5-isopropyl-8-(3-methoxypropoxy)-2-oxo-5H-chromeno[4,3-b]pyridine-3-carboxylic acid]	++ (50-75%)	> 50 nM	++ (50-75%)	22 to 50 nM
COCCCOc1cc2c(cc1Cl)-c1c(cc(C(=O)O)c(=O)n1C1CC1)[C@H](C1(C)COC1)O2 [Compound 46, (5R)-9-chloro-1-cyclopropyl-8-(3-methoxypropoxy)-5-(3-methyloxetan-3-yl)-2-oxo-5H-chromeno[4,3-b]pyridine-3-carboxylic acid]	++ (50-75%)	0.001 to 20 nM	+++ (75-100%)	0.001 to 20 nM
